Test results: US7923425B2, “Low-foaming, acidic low-temperature cleaner and process for cleaning surfaces” (Henkel AG & Co. KGaA, priority 2006, dated 2011)
Where “and” joins values, the source holds several entries; their conditions need not be identical. Equal values may be shown once.

Key:
[1] = Cleaning test on soiled aluminum panels, mineral oil soil; conditions: 0.05% alone in water, no matrix, 120° F., 90 seconds
Protocol: (§1) A series of commercially available cleaners as well as certain surfactants and related compounds in water, alone, without a builder matrix were tested for cleaning performance. The cleaning effectiveness of each cleaner composition was tested follows: • 1. Soiled aluminum panels, 1″×4″, were used as the test specimens. […] Mineral oil and corn oil, each modified by the addition of 10% graphite, were used as the soils for each screening. Soil patches on the aluminum were deposited immediately before testing.
(§2) The test specimens were cleaned by low-impingement, continuously circulated aqueous working baths to determine chemical cleaning strength. The test also screened for foaminess. The continuous circulation promoted foam formation. Cleaning effectiveness was evaluated gravimetrically and the percentage of oily contaminant removed by the formulation was calculated by comparing soil weights before and after cleaning. This technique is a common procedure in analytic chemistry and will be familiar to those of skill in the art. The results of these experiments are summarized in Tables 1 and 3 as percent reduction of soil.

[2] = Cleaning test on soiled aluminum panels, corn oil soil; conditions: 0.05% alone in water, no matrix, 120° F., 90 seconds
Protocol: as §1, §2

## OCCOCCOCc1ccccc1 [Surfactant #7, benzyl alcohol ethoxylate, C6H5CH2—O—(CH2—CH2—O)n—H, n=2]
[1]
  % reduction of soil, Min Oil, single panel: 98.9% and 100.0% (2×)
[2]
  % reduction of soil, Corn Oil, single panel: 92.2% and 92.0% and 91.6%

## tri(propylene glycol) propyl ether
[1]
  % reduction of soil, Min Oil, single panel: 93.9% and 100.0% (2×)
[2]
  % reduction of soil, Corn Oil, single panel: 90.0% and 88.9% and 95.0%
